Test results taken from patent US20090137652A1, “METHODS FOR NEUROPROTECTION” (priority 2005, published 2009).
Values joined by “and” are separate entries in the source; they are usually repeats but may differ in a detail not shown here. Equal entries are not always repeated.

Legend:
[1] = tested on: rats subjected to Li-pilo induced SE; experiment: EEG patterns during lithium-pilocarpine SE (Example 1); type: in vivo, rat; settings: DZP-treated rats (2 mg/kg i.m.)
Method: Male Wistar rats weighing 225-250 g, provided by Janvier Breeding Center (Le Genest-St-lste, France) were housed under controlled standard conditions (light/dark cycle, 7.00 a.m.-7.00 p.m. lights on), with food and water available ad libitum. All animal experimentation was performed in accordance with the rules of the European Communities Council Directive of Nov. 24, 1986 (86/609/EEC), and the French Department of Agriculture (License No 67-97). For electrode implantation, rats were anesthetized by an i.p. injection of 2.5 mg/kg diazepam (DZP, Valium, Roche, France) and […] ketamine chlorhydrate (Imalgene 1000, Rhone Merrieux, France). Four single-contact recording electrodes were placed on the skull, over the parietal cortex, two on each side.
All rats received lithium chloride (3 meq/kg, i.p., Sigma, St Louis, Mo., U.S.A.); about 20 h later, animals were placed into plexiglas boxes, in order to record baseline cortical EEG. Methylscopolamine bromide (1 mg/kg, s.c., Sigma) was administered to limit the peripheral effects of the convulsant. SE was induced by injecting pilocarpine hydrochloride (25 mg/kg, s.c., Sigma) 30 min after methyl-scopolamine. The bilateral EEG cortical activity was recorded during the whole duration of SE and behavioral changes were noted.
The effects of increasing doses of the test compound were studied on 3 groups of rats. The animals of the first group received 10 mg/kg of the test compound, i.p., 1 h after the onset of SE (pilo-TC10) while the animals of groups 2 and 3 received 30 and 60 mg/kg of the test compound (pilo-TC30 and pilo-TC60), respectively.
Another group was injected with 2 mg/kg diazepam (DZP, i.m.) at 1 h after the onset of SE. This is a standard treatment to improve animals survival after SE (pilo-DZP). The control group received saline instead of pilocarpine and the test compound (saline-saline). The pilo-test compound rats surviving SE were then injected about 10 h after the first test compound injection with a second i.p. injection of the same dose of the test compound and were maintained under a twice daily treatment with the test compound for 6 additional days. Pilo-DZP received a second injection of 1 mg/kg DZP on the day of SE at about 10 h after the first one. Thereafter, Pilo-DZP and saline-saline rats received twice daily an equivalent volume of saline.
The effects of the test compound on the EEG and on the latency to occurrence of SRS were investigated by daily video recording of the animals for 10 h per day and the recording of the electrographic activity twice a week for 8 h.

[2] = tested on: rats subjected to li-pilo SE; experiment: Quantification of cell densities 14 days after lithium-pilocarpine SE (Example 2); type: in vivo, rat; settings: 14 days after SE
Method: All rats received lithium chloride (3 meq/kg, i.p., Sigma, St Louis, Mo., U.S.A.) and about 20 h later, all animals received also methylscopolamine bromide (1 mg/kg, s.c., Sigma) that was administered to limit the peripheral effects of the convulsant. SE was induced by injecting pilocarpine hydrochloride (25 mg/kg, s.c., Sigma) 30 min after methylscopolamine. The effects of increasing doses of TC (RWJ) were studied in 5 groups of rats. […] The control group received vehicle instead of pilocarpine and TC.
At the moment, neuronal counting is still in progress in the second group of animals studied for epileptogenesis and long-term counting and the data concerning that part of the study will not be included in the present report. For neuronal counting, animals were deeply anesthetized with […] pentobarbital (Dolethal®, Vetoquinol, Lure, France). Brains were then removed and frozen. Serial 20 μm slices were cut in a cryostat, air-dried during several days before thionine staining. […] The grid of counting was placed on a well defined area of the cerebral structure of interest and counting was carried out with a microscopic enlargement of 200- or 400-fold defined for each single cerebral structure. Cell counts were performed twice on each side of three adjacent sections for each region by a single observer unaware of the animal's treatment. The number of cells obtained in the 12 counted fields in each cerebral structure was averaged. This procedure was used to minimize the potential errors that could result from double counting leading to overestimation of cell numbers. […] Counts involved only neurons with cell bodies larger than 10 μm. Cells with small cell bodies were considered as glial cells and were not counted.
For neuronal damage and epileptogenesis, statistical analysis between groups was performed by means of a one-way analysis of variance followed by a post-hoc Dunnett or Fisher test using the Statistica software.

[3] = DZP rats compared to control rats
[4] = DZP rats compared to control saline-treated rats
[5] = pilo-DZP (2.5 mg/kg i.m.), n = 7

Q: What does the source list for `CN1C(=O)CN=C(c2ccccc2)c2cc(Cl)ccc21` [DZP, diazepam, reference compound]?
A: EEG activity in the cortex and the hippocampus by 6-7 h of SE [1]: spiking activity was still present; neurons surviving, all parts of the entorhinal cortex ([2]; DZP group): 27-81%; neuronal damage, amygdala central nucleus [2, 3]: no neuronal damage; neuronal drop out, CA1 region of the hippocampus (pyramidal cell layer) [2, 3]: 85%; neuronal drop out, amygdala basolateral nucleus [2, 3]: 73%; neuronal drop out, amygdala medial dorsal anterior nucleus [2, 3]: 53%; neuronal drop out, thalamus central medial nucleus [2, 3]: 34%; neuronal drop out, thalamus dorsolateral medial dorsal nucleus [2, 3]: 40%; neuronal drop out, thalamus mediodorsal central nucleus [2, 3]: 18%; neuronal drop out, thalamus mediodorsal lateral nucleus [2, 3]: 24%; neuronal loss, CA3 region [2, 3]: 40%; neuronal loss, amygdala medial ventral posterior nucleus [2, 3]: 38%; neuronal loss, hilus of the dentate gyrus [2, 3]: 65% and 66%; neuronal loss, thalamus mediodorsal nucleus [2, 3]: 49%; neuronal loss, ventral lateral division of the dorsolateral thalamic nucleus [2, 3]: 90%; damage, dorsal entorhinal cortex layer II [2, 4]: 18%; damage, dorsal entorhinal cortex layers III-IV [2, 4]: 24%; damage, ventral entorhinal cortex layer II [2, 4]: 22% and 19%; damage, ventral entorhinal cortex layers III/IV [2, 4]: 74% and 73%; neuronal loss, piriform cortex dorsal layer II [2, 4]: 66%; neuronal loss, piriform cortex layer III [2, 4]: 94%; neuronal loss, piriform cortex ventral layer II [2, 4]: 89%; number of neuronal cell bodies, Amygdala, Basolateral [2, 5]: 12.8 ± 5.3; number of neuronal cell bodies, Amygdala, Medial, dorsal anterior [2, 5]: 40.0 ± 2.5; number of neuronal cell bodies, Amygdala, Medial, ventral posterior [2, 5]: 21.8 ± 2.4; number of neuronal cell bodies, Cerebral cortex, Entorhinal, layer II, dorsal [2, 5]: 23.5 ± 0.7; number of neuronal cell bodies, Cerebral cortex, Entorhinal, layer II, ventral [2, 5]: 21.7 ± 1.3; number of neuronal cell bodies, Cerebral cortex, Entorhinal, layer III/IV, dorsal [2, 5]: 22.3 ± 0.5; number of neuronal cell bodies, Cerebral cortex, Entorhinal, layer III/IV, ventral [2, 5]: 7.7 ± 2.3; number of neuronal cell bodies, Cerebral cortex, Piriform, layer II, dorsal [2, 5]: 12.6 ± 4.2; number of neuronal cell bodies, Cerebral cortex, Piriform, layer II, ventral [2, 5]: 3.6 ± 0.7; number of neuronal cell bodies, Cerebral cortex, Piriform, layer III [2, 5]: 1.2 ± 1.2; number of neuronal cell bodies, Hippocampus, CA1 area [2, 5]: 10.9 ± 1.9; number of neuronal cell bodies, Hippocampus, CA3 area [2, 5]: 31.3 ± 2.9; number of neuronal cell bodies, Hippocampus, Hilus [2, 5]: 33.5 ± 3.0; number of neuronal cell bodies, Thalamus, Central medial [2, 5]: 74.2 ± 7.4; number of neuronal cell bodies, Thalamus, Dorsolateral, medial, dorsal [2, 5]: 61 ± 6.3; number of neuronal cell bodies, Thalamus, Dorsolateral, ventral lateral [2, 5]: 9.7 ± 2.5; number of neuronal cell bodies, Thalamus, Mediodorsal central [2, 5]: 26.3 ± 1.8; number of neuronal cell bodies, Thalamus, Mediodorsal lateral [2, 5]: 19.6 ± 0.8; number of neuronal cell bodies, Thalamus, Mediodorsal medial [2, 5]: 16.4 ± 1.9
